PMC2033546, “Effects of somatostatin analogue RC-160 and bombesin/gastrin-releasing peptide antagonists on the growth of human small-cell and non-small-cell lung carcinomas in nude mice” (British Journal of Cancer, 1994)

How the values were obtained:
[1] = tested on: EGF receptors; conditions: various cancer lines and cancer specimens; ref Liebow et al., 1992; cited from earlier work
Source text: (§1) Br. J. Cancer (1994). 70, 886 892 ? Macmillan Press Ltd..

[2] = tested on: SCLC xenografts; conditions: nude mice; ref Alexander et al., 1988; cited from earlier work
Source text: as §1

[3] = tested on: SCLC; conditions: in vitro; ref Carney et al., 1987; cited from earlier work
Source text: as §1

[4] = tested on: human SCLC cell line NCI-H69; assay: Growth of H69 SCLC xenografts in nude mice; format: in vivo, human (xenograft in male athymic nude mice)
Source text: (§2) Br. J. Cancer (1994). 70, 886 892 ? Macmillan Press Ltd.. […] Bombesin GRP antagonists. […] Lung carcinoma is the leading cause of cancer-related deaths in the western world. It is estimated that in 1992 there were approximately 168,000 new cases of lung cancer in the US and that about 146,000 deaths occurred from this disease (Boring et al., 1992). […] The growth factors such as bombesin/gastrin-releasing pep- tide (GRP), epidermal growth factor, (EGF), transforming growth factor a (TGF-x) and insulin-like growth factor I(IGF-I) appear to play a role in the proliferation and pro- gression of lung cancer (Cuttitta et al., 1985; Veale et al., 1987; Minuto et al., 1988; Siegfried & Owens, 1988; Macaulay et al., 1990; Tateishi et al., 1991; Damstrup et al., 1992; Sethi & Rozengurt, 1992; Rabiasz et al., 1992; Moody & Cuttitta, 1993). […] Tpi is 2,3,4,9-tetrahydro- Correspondence: A.V. Schally (151). VA Medical Center, 1601 Per- dido Street. New Orleans, LA 70146. USA. Received 1 March 1994; and in revised form 5 July 1994. Br. J. Cancer (1994), 70, 886-892 C Macmillan Press Ltd., 1994 PEPTIDE ANALOGUES IN LUNG CANCER 8U7 lH-pyrido [3,4bjindol-3-carboxylic acid, a conformationally constrained secondary amine derivate of tryptophan and Tac is thiazolidine-4-carboxylic acid. […] Animals Male athymic NCr nulmu nude mice, approximately 6 weeks old on arrival, were obtained from the NCI (Bethesda, MD, USA) and maintained under pathogen-limited conditions. Cell lines The human SCLC cell line NCI-H69, was obtained from the American Type Cell Culture (ATCC), Rockville, MD, USA and the non-SCLC cell line NCI-H157, from Dr H. Oie, NCI-Navy Medical Oncology Branch, Bethesda, MD, USA. These cell lines were cultured in RPMI-1640 medium supple- mented with 4 mM L-glutamine, 50 units ml-I penicilln G sodium, SOigml-' streptomycin sulphate, 0.125pgml-' amphotericin B and 10% fetal bovine serum at 3TC in a humidified 95% air/5% carbon dioxide atmosphere. CeLs were passaged weekly and routinely monitored for myco- plasma contamination using a detection kit (Boehringer- Mannheim, Mannheim, Germany). All culture media com- ponents were purchased from Gibco (Grand Island, NY, USA). Receptor assays Preparation of membranes for receptor studies was described previously (Halmos et al., 1993). Iodinated EGF and IGF-I were purchased from Amersham (Arlington Heights, IL, USA). Radioiodination of other peptides and receptor bind- ing of EGF, IGF-I, somatostatin and bombesin/GRP were performed as previously described (Srkalovic et al., 1989; Szepeshazi et al., 1992). Complete displacement assays on tumour membranes were done only once because of the shortage of tumour material. The LIGAND PC computerised curve-fitting programme of Munson and Rodbard (1980) was used to determine the types of receptor binding, dissociation constant (Kd) values, and the maximal binding capacity (BDj) of receptors. In order to determine the specificity of the binding sites for radiolabelled EGF, IGF-I, somatostatin and bombesin to lung cancer membranes, various structuraly related and unrelated peptides were tested for their ability to inhibit the binding of the tracers. Histological procedure The histological procedures were the same as described previously (Szepeshazi et al., 1991, 1992). The number of mitotic and apoptotic cells per 1,000 cells was determined, and the percentage area of necrosis in tumour sections was examined using the point-counting method (Szepeshazi et al., 1991, 1992), in which the crossing points of an ocular net that coincide with necrosis in various sections are counted. Radiommunoassays Serum levels of growth hormone were determined by double- antibody radioimmunoassay (RIA) using materials supplied by the National Hormone and Pituitary Program of the National Institute of Diabetes and Digestive and Kidney Diseases (NIDDK).

[5] = tested on: non-SCLC cell line NCI-H157; assay: Growth of H157 non-SCLC xenografts in nude mice; format: in vivo, human (xenograft in male athymic nude mice); conditions: RC-160 100 µg/day, RC-3095 20 µg/day
Source text: as §2

[6] = tested on: SCLC H69 tumours; assay: Histology (mitosis, apoptosis, necrosis) of SCLC H69 tumours; format: in vivo, human (xenograft in nude mice)
Source text: as §2

[7] = tested on: EGF receptors in membranes of SCLC H69 tumours; assay: EGF receptor binding on H69 tumour membranes after in vivo treatment; set-up: species or system human; conditions: Table IV, Experiment I (SCLC-H69); tumour membranes after in vivo treatment; control 278; ten-point displacement in triplicate tubes, done once
Source text: as §2, with “In order to determine the specificity of the binding sites for radiolabelled EGF, IGF-I, somatostatin and bombesin to lung cancer membranes, various structuraly related and unrelated peptides were tested for their ability to inhibit the binding of the tracers. Histological procedure The histological procedures were the same as described previously (Szepeshazi et al., 1991, 1992).” left out

[8] = tested on: EGF receptors in membranes of non-SCLC H157 tumours; assay: EGF receptor binding on H157 tumour membranes after in vivo treatment; set-up: species or system human
Source text: as §2, with “Receptor assays Preparation of membranes for receptor studies was described previously (Halmos et al., 1993). Iodinated EGF and IGF-I were purchased from Amersham (Arlington Heights, IL, USA). Radioiodination of other peptides and receptor bind- ing of EGF, IGF-I, somatostatin and bombesin/GRP were performed as previously described (Srkalovic et al., 1989; Szepeshazi et al., 1992). Complete displacement assays on tumour membranes were done only once because of the shortage of tumour material. The LIGAND PC computerised curve-fitting programme of Munson and Rodbard (1980) was used to determine the types of receptor binding, dissociation constant (Kd) values, and the maximal binding capacity (BDj) of receptors. In order to determine the specificity of the binding sites for radiolabelled EGF, IGF-I, somatostatin and bombesin to lung cancer membranes, various structuraly related and unrelated peptides were tested for their ability to inhibit the binding of the tracers. Histological procedure The histological procedures were the same as described previously (Szepeshazi et al., 1991, 1992).” left out

[9] = tested on: IGF-I receptors in membranes of SCLC H69 tumours; assay: IGF-I receptor binding on H69 tumour membranes after in vivo treatment; set-up: species or system human; conditions: Table IV, Experiment I (SCLC-H69), control 294, done once
Source text: as §2, with “Receptor assays Preparation of membranes for receptor studies was described previously (Halmos et al., 1993). Iodinated EGF and IGF-I were purchased from Amersham (Arlington Heights, IL, USA). Radioiodination of other peptides and receptor bind- ing of EGF, IGF-I, somatostatin and bombesin/GRP were performed as previously described (Srkalovic et al., 1989; Szepeshazi et al., 1992). Complete displacement assays on tumour membranes were done only once because of the shortage of tumour material. The LIGAND PC computerised curve-fitting programme of Munson and Rodbard (1980) was used to determine the types of receptor binding, dissociation constant (Kd) values, and the maximal binding capacity (BDj) of receptors. In order to determine the specificity of the binding sites for radiolabelled EGF, IGF-I, somatostatin and bombesin to lung cancer membranes, various structuraly related and unrelated peptides were tested for their ability to inhibit the binding of the tracers. Histological procedure The histological procedures were the same as described previously (Szepeshazi et al., 1991, 1992).” left out

[10] = tested on: IGF-I receptors in membranes of non-SCLC H157 tumours; assay: IGF-I receptor binding on H157 tumour membranes after in vivo treatment; set-up: species or system human
Source text: as §2, with “Receptor assays Preparation of membranes for receptor studies was described previously (Halmos et al., 1993). Iodinated EGF and IGF-I were purchased from Amersham (Arlington Heights, IL, USA). Radioiodination of other peptides and receptor bind- ing of EGF, IGF-I, somatostatin and bombesin/GRP were performed as previously described (Srkalovic et al., 1989; Szepeshazi et al., 1992). Complete displacement assays on tumour membranes were done only once because of the shortage of tumour material. The LIGAND PC computerised curve-fitting programme of Munson and Rodbard (1980) was used to determine the types of receptor binding, dissociation constant (Kd) values, and the maximal binding capacity (BDj) of receptors. In order to determine the specificity of the binding sites for radiolabelled EGF, IGF-I, somatostatin and bombesin to lung cancer membranes, various structuraly related and unrelated peptides were tested for their ability to inhibit the binding of the tracers. Histological procedure The histological procedures were the same as described previously (Szepeshazi et al., 1991, 1992).” left out

[11] = tested on: Bombesin/GRP receptors in membranes of SCLC H69 tumours; assay: Bombesin/GRP receptor binding on H69 tumour membranes after in vivo treatment; set-up: species or system human; conditions: after in vivo treatment
Source text: as §2, with “In order to determine the specificity of the binding sites for radiolabelled EGF, IGF-I, somatostatin and bombesin to lung cancer membranes, various structuraly related and unrelated peptides were tested for their ability to inhibit the binding of the tracers. Histological procedure The histological procedures were the same as described previously (Szepeshazi et al., 1991, 1992).” left out

[12] = tested on: Somatostatin receptors in membranes of SCLC H69 tumours; assay: Somatostatin receptor binding on H69 tumour membranes after in vivo treatment; set-up: species or system human; conditions: Table IV, Experiment I (SCLC-H69); tumour membranes after in vivo treatment; control 450; done once
Source text: as §2, with “In order to determine the specificity of the binding sites for radiolabelled EGF, IGF-I, somatostatin and bombesin to lung cancer membranes, various structuraly related and unrelated peptides were tested for their ability to inhibit the binding of the tracers. Histological procedure The histological procedures were the same as described previously (Szepeshazi et al., 1991, 1992).” left out

[13] = tested on: EGF receptor levels in tumour membranes (pancreatic, prostatic, mammary and colorectal cancers); conditions: associated with inhibition of growth of pancreatic, ref Radulovic et al., 1991b, Szepeshazi et al., 1991, 1992, Pinski et al., 1994a; cited from earlier work
Source text: as §1

**Q.** Which results are given for Bombesin?
**A.** Effect on phosphorylation of EGF receptors (in words) [1]: enhance the phosphorylation of EGF receptors; Effect on growth of SCLC xenografts (in words) [2]: stimulates; Effect on clonal growth of SCLC and DNA synthesis (in words) [3]: stimulates the clonal growth of SCLC and DNA synthesis in vitro

**Q.** For “[D-Tpi6, Leu'3, *(CH2NH)Leu'4] bombesin (6- 14) [RC-3095]”, which Tumour volume, final ([4]; Table I, Experiment I (SCLC-H69), 5 weeks s.c. peritumoral, RC-160 100 µg/day, RC-3440, RC-3095, RC-3950-II 20 µg/day per animal, control 249.7 ? 182.3, means ? s.d., ten animals per group, *P<0.05 vs control) is on record?
**A.** 80.2 mm³

**Q.** And the Tumour weight ([4]; Table I, Experiment I (SCLC-H69), 5 weeks s.c. peritumoral, RC-160 100 µg/day, antagonists 20 µg/day per animal, control 0.27 ? 0.19, means ? s.d., *P<0.05 vs control)?
**A.** 0.081 0.06* g

**Q.** What about the Tumour doubling time ([4]; Table I, Experiment I (SCLC-H69), 5 weeks, RC-160 100 µg/day, antagonists 20 µg/day per animal s.c., control 7.5) of the same substance?
**A.** 12.2 days

**Q.** And the “Growth of H69 SCLC tumours (in words)” value ([4]; s.c. peritumorally, RC-160 100 µg, bombesin/GRP antagonists 20 µg per animal per day, 5 weeks)?
**A.** inhibited the growth of H69 SCLC tumours

**Q.** What about the “Growth of H157 non-SCLC tumours (in words)” value ([5]; 4 weeks s.c., SB-75 100 µg/day per animal, vs control) of the same substance?
**A.** No significant reduction in final tumour volume, tumour weight and tumour growth

**Q.** And the Tumour volume, final ([5]; Table I, Experiment II (non-SCLC H157), 4 weeks s.c. peritumoral, SB-75 100 µg/day per animal, control 1580.3 ? 455.7, means ? s.d., ten animals per group, *P<0.05 vs control)?
**A.** 913 mm³

**Q.** What about the Tumour doubling time ([5]; Table I, Experiment II (non-SCLC H157), 4 weeks s.c., SB-75 100 µg/day, control 3.88) of the same substance?
**A.** 4.42 days

**Q.** What about the “Extent of necrosis (in words)” value ([6]; SCLC H69 tumours, point-counting method, differences from control not significant statistically) of the same substance?
**A.** less exten- sive

**Q.** What about the Apoptotic index ([6]; Table II, Experiment I (SCLC H69), apoptotic cells per 1,000 cells, control 35.4 ? 2.6, means ? s.e.) of the same substance?
**A.** 36.5

**Q.** And the Mitotic index ([6]; Table II, Experiment I (SCLC H69), mitotic cells per 1,000 cells, control 37.9 ? 2.9, means ? s.e., *P < 0.05 vs control)?
**A.** 28.8

**Q.** And the “EGF maximal binding capacity (Bmax)” value [7]?
**A.** 102 fmol mg' protein

**Q.** And the “EGF maximal binding capacity (Bmax)” value ([8]; Table IV, Experiment II (non-SCLC H157), tumour membranes after in vivo treatment, control 249, done once)?
**A.** 207 fmol mg' protein

**Q.** And the “EGF binding capacity on H157 tumours (in words)” value ([8]; after in vivo treatment)?
**A.** no effect

**Q.** What about the “IGF-I maximal binding capacity (Bmax)” value [9] of the same substance?
**A.** 300 fmol mg' protein

**Q.** And the “IGF-I maximal binding capacity (Bmax)” value ([10]; Table IV, Experiment II (non-SCLC H157), tumour membranes after in vivo treatment, control 257, done once)?
**A.** 270 fmol mg' protein

**Q.** What about the “IGF-I binding sites on H157 tumours (in words)” value ([10]; after in vivo treatment) of the same substance?
**A.** no effect

**Q.** And the “Concentration of receptors for bombesin/GRP on H69 tumours (in words)” value [11]?
**A.** reduced to non-detectable levels

**Q.** What about the “Somatostatin maximal binding capacity (Bmax)” value [12] of the same substance?
**A.** 480 fmol mg-'protein

**Q.** What about the “EGF receptor levels in tumour membranes (in words)” value [13] of the same substance?
**A.** major decrease in EGF receptor levels

**Q.** What about the “Effect on phosphorylation of EGF receptors (in words)” value [1] of the same substance?
**A.** inhibits these effects
